Assay results as given in ChEMBL document CHEMBL1201862, “PubChem BioAssay data set” (2004).
The source made the active and inactive calls.

Key:
ORF 73 = target: T1, ORF 73 (Human herpesvirus 8, UniProt O40947); assay: inhibitors of C-LANA binding to LBS DNA, dose response, biochemical, fluorescence polarization, cherry-picked samples (AID 504725); set-up: species or system Human gammaherpesvirus 8;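 also: fluorescence polarization of a labeled DNA duplex reporting LANA DNA binding; potency is for inhibitors that block LANA binding to the DNA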
T1 sequence (O40947 whole entry): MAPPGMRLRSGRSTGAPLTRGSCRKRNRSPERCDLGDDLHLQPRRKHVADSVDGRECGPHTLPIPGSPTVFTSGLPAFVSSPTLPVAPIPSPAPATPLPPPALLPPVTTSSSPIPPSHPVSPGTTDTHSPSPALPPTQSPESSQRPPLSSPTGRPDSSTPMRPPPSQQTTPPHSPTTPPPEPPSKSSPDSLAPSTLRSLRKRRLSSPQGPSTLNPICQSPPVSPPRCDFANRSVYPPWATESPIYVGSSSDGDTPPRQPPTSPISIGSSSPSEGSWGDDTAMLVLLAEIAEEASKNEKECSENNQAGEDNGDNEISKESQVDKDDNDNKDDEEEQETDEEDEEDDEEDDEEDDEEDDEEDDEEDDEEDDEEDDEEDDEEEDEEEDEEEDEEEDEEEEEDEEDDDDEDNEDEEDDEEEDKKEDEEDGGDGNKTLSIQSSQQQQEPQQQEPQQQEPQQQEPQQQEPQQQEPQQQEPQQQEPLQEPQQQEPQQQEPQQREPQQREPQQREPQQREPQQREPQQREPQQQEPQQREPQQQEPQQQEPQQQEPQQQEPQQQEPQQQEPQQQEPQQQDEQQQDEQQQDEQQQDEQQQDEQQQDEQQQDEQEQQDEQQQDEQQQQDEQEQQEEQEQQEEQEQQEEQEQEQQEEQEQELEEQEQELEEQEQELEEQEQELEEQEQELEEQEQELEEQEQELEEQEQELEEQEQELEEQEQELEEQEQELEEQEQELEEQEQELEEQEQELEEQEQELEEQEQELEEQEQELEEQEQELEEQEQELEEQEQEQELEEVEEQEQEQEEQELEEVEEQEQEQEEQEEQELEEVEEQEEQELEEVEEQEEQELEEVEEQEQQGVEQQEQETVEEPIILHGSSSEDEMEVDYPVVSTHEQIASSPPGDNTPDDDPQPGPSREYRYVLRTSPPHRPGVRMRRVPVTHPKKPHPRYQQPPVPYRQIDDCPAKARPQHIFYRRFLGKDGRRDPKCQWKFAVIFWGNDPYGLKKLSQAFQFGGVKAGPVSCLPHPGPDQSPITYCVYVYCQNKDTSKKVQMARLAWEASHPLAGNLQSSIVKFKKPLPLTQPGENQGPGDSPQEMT

Protein skinhead-1 = target: T2, Protein skinhead-1 (Caenorhabditis elegans, UniProt P34707); assay type: functional
T2 sequence (P34707 whole entry): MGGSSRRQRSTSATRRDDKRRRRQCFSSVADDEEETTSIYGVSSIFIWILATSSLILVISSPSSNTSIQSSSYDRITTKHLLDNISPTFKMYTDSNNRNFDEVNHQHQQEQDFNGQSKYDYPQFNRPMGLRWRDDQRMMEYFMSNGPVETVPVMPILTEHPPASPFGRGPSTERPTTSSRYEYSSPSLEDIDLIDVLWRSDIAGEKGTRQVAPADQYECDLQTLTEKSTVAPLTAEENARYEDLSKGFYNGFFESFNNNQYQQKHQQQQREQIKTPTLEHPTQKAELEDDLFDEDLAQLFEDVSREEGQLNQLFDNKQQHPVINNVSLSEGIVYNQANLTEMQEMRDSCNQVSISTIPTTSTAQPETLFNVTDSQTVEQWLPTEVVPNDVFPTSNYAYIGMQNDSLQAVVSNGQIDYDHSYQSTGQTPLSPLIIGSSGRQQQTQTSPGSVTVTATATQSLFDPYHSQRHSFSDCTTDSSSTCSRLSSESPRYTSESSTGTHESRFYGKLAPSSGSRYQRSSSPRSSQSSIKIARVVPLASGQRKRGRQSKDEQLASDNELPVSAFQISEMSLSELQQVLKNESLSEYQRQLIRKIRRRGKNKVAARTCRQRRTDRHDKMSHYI

[1] = cytotoxicity in HEK-293T cells, dose response, cytotoxicity control for TCR NF-kB inhibitor project, luminescence, T-cell screen hits (AID 489026); assay type: functional, cell-based;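 also: cells exposed to compound about 14 hours before the viability readout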
[2] = target: T3, Endoribonuclease toxin MazF (Escherichia coli K-12, UniProt P0AE70); assay: fluorescent RNA oligo signal without MazF, dose response, counter-screen for MazEF activator project, biochemical, fluorescence, single-stranded RNase substrate (AID 588502); assay type: functional
T3 sequence (P0AE70 whole entry): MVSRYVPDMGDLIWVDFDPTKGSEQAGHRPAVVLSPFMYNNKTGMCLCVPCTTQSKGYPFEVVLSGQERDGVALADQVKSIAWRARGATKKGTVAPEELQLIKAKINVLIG

[3] = target: T3, Endoribonuclease toxin MazF; assay: MazF toxin RNase activators, dose response, biochemical, fluorescence, single-stranded RNA substrate, uHTS hits (AID 588481); assay type: functional
cells = assay type: functional
[4] = THP-1 cell cytotoxicity, dose response, cytotoxicity control for non-replicating M. tuberculosis project (AID 489025); assay type: functional
[5] = Vero E6 cell cytotoxicity, dose response, cytotoxicity control for non-replicating M. tuberculosis project, secondary assay (AID 492998); assay type: functional, VeroE6; details: Vero C1008
[6] = target: T4, E3 ubiquitin-protein ligase XIAP (Homo sapiens, UniProt P98170); assay: Counter Screen using XIAP-Bir3 for Chemical Antagonists of Bir1/2 domains of IAP-family anti-apoptotic proteins. [Related pubchem assays (depositor defined):AID1018, AID1449, AID1514, AID1638, AID1749, AID1750, AID488957, AID488963]
[7] = target: T4, E3 ubiquitin-protein ligase XIAP; assay: XIAP antagonists, biochemical, IAP family, fluorescence polarization (AID 1018); assay type: functional
[8] = target: T5, Heat shock factor protein 1 (Mus musculus, UniProt P38532); assay: inhibition of MG132-induced HSE-luciferase signal, confirmation, cell-based, NIH3T3, luminescence, dose retest (AID 2382); assay type: functional;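 also: NIH3T3 fibroblasts with HSF1-driven luciferase reporter stressed by proteasome inhibitor MG132; luminescence from HSF1-driven luciferase expression after 8 hours of MG132 stress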
T5 sequence (P38532 whole entry): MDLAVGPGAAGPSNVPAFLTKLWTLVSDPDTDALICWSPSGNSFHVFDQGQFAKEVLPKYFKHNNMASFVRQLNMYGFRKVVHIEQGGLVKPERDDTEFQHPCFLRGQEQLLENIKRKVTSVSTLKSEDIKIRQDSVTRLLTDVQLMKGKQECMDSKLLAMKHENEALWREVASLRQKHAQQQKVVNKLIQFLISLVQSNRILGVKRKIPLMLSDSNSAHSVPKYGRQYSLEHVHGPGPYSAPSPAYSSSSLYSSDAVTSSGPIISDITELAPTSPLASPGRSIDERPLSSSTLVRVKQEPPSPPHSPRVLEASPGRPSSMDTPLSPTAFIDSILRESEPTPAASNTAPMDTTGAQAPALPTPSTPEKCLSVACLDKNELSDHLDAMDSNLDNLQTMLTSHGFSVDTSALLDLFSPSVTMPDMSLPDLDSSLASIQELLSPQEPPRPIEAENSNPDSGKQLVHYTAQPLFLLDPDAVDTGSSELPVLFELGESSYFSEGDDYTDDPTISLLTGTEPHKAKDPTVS

[9] = target: T6, Voltage-gated N-type calcium channel alpha-1B subunit/Amyloid beta A4 precursor protein-binding family A member 1 (Homo sapiens, UniProt Q00975+Q02410); assay type: protein assay
[10] = Luminescence Cell-Based Dose Retest to Confirm Inhibitors of Cancer Stem Cells. [Related pubchem assays (depositor defined):AID2717, AID2721]; assay type: functional; details: Homo sapiens
[11] = target: T6, Voltage-gated N-type calcium channel alpha-1B subunit/Amyloid beta A4 precursor protein-binding family A member 1; assay type: protein assay; remark: listed apart in the source
[12] = tested on: Streptococcus sp. 'group A'; assay: growth inhibition of control SK(-) GAS strain, dose response, counter-screen for streptokinase expression inhibitor project, luminescence, kanamycin, BacTiterGlo, confirmation (AID 1900); assay type: functional, organism-based
Streptococcus = assay: Group A Streptococcus viability loss, dose response, counter-screen for streptokinase expression inhibitor project, luminescence, BacTiterGlo (AID 1915); assay type: functional, organism-based;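 also: potency for reduction of bacterial viability or growth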
X-box-binding protein 1 = target: T7, X-box-binding protein 1 (Homo sapiens, UniProt P17861); assay type: functional, Cricetulus griseus;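 also: confirmatory dose-response counter-screen serving a CHOP assay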
T7 sequence (P17861 whole entry): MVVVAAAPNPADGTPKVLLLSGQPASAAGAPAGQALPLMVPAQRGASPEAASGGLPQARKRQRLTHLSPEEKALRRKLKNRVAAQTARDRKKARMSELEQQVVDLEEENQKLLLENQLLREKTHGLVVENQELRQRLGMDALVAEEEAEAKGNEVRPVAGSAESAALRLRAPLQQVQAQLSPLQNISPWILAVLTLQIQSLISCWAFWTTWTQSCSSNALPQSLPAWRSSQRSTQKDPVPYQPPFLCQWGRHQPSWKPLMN

Streptokinase A = target: T8, Streptokinase A (Streptococcus pyogenes serotype M1, UniProt P10520); assay: S. pyogenes streptokinase expression inhibitors, potency, dose response, plasminogen activation absorbance, OD405 (AID 1914); assay type: functional, Streptococcus pyogenes M1 GAS;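 also: secreted streptokinase activity via plasminogen activation per viability signal from cell pellet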
T8 sequence (P10520 whole entry): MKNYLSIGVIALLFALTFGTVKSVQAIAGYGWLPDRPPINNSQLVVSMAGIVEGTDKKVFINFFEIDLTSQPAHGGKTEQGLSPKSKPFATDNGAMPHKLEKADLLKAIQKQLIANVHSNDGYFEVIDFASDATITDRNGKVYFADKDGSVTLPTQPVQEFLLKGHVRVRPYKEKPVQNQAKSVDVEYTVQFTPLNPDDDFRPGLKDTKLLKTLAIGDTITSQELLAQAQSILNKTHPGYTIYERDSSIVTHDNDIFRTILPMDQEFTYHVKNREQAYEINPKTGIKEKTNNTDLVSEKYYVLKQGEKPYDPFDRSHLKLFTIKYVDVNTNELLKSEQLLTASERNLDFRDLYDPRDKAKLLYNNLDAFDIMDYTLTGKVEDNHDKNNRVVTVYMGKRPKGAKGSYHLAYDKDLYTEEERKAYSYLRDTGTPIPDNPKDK

Trypsin = Trypsin (Sus scrofa, UniProt P00761); assay: porcine trypsin inhibitors, dose response, selectivity assay for Rce1 protease inhibitor project, biochemical, quenched peptide fluorescence, cherry-pick (AID 488789)
[13] = target: DNA dC->dU-editing enzyme APOBEC-3G (Homo sapiens, UniProt Q9HC16); assay: Dose Response confirmation of small molecule APOBEC3G DNA Deaminase Inhibitors via a fluorescence-based single-stranded DNA deaminase assay. [Related pubchem assays (depositor defined):AID493012, AID493028]; assay type: functional
[14] = target: Induced myeloid leukemia cell differentiation protein Mcl-1 (Homo sapiens, UniProt Q07820); assay type: functional
SUMO-activating enzyme [15] = target: T9, SUMO-activating enzyme (Homo sapiens, UniProt Q9UBT2); assay: SUMOylation inhibitor hit validation, confirmation, SUMOylation inhibitor project, biochemical, AlphaScreen (AID 2018); assay type: functional
SUMO-activating enzyme [16] = target: T9, SUMO-activating enzyme; assay: inhibitors of in vitro SUMOylation cascade, primary screen, biochemical, HTRF, uHTS (AID 2006); assay type: protein-complex assay

T4 sequence (P98170 whole entry): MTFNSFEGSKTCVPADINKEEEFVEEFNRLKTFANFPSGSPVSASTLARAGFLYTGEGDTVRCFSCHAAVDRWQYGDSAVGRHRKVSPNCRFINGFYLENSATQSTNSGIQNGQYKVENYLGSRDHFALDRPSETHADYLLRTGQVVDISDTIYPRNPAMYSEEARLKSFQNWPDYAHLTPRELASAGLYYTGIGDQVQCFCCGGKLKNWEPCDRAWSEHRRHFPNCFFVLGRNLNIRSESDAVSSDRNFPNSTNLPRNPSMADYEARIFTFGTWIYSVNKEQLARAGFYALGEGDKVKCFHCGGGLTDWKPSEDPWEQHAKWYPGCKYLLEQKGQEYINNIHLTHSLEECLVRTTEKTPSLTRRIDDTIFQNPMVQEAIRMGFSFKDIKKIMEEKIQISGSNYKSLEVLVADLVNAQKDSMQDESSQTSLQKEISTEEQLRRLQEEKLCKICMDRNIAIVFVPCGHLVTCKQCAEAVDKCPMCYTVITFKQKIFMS
T6 sequence (Q00975 whole entry): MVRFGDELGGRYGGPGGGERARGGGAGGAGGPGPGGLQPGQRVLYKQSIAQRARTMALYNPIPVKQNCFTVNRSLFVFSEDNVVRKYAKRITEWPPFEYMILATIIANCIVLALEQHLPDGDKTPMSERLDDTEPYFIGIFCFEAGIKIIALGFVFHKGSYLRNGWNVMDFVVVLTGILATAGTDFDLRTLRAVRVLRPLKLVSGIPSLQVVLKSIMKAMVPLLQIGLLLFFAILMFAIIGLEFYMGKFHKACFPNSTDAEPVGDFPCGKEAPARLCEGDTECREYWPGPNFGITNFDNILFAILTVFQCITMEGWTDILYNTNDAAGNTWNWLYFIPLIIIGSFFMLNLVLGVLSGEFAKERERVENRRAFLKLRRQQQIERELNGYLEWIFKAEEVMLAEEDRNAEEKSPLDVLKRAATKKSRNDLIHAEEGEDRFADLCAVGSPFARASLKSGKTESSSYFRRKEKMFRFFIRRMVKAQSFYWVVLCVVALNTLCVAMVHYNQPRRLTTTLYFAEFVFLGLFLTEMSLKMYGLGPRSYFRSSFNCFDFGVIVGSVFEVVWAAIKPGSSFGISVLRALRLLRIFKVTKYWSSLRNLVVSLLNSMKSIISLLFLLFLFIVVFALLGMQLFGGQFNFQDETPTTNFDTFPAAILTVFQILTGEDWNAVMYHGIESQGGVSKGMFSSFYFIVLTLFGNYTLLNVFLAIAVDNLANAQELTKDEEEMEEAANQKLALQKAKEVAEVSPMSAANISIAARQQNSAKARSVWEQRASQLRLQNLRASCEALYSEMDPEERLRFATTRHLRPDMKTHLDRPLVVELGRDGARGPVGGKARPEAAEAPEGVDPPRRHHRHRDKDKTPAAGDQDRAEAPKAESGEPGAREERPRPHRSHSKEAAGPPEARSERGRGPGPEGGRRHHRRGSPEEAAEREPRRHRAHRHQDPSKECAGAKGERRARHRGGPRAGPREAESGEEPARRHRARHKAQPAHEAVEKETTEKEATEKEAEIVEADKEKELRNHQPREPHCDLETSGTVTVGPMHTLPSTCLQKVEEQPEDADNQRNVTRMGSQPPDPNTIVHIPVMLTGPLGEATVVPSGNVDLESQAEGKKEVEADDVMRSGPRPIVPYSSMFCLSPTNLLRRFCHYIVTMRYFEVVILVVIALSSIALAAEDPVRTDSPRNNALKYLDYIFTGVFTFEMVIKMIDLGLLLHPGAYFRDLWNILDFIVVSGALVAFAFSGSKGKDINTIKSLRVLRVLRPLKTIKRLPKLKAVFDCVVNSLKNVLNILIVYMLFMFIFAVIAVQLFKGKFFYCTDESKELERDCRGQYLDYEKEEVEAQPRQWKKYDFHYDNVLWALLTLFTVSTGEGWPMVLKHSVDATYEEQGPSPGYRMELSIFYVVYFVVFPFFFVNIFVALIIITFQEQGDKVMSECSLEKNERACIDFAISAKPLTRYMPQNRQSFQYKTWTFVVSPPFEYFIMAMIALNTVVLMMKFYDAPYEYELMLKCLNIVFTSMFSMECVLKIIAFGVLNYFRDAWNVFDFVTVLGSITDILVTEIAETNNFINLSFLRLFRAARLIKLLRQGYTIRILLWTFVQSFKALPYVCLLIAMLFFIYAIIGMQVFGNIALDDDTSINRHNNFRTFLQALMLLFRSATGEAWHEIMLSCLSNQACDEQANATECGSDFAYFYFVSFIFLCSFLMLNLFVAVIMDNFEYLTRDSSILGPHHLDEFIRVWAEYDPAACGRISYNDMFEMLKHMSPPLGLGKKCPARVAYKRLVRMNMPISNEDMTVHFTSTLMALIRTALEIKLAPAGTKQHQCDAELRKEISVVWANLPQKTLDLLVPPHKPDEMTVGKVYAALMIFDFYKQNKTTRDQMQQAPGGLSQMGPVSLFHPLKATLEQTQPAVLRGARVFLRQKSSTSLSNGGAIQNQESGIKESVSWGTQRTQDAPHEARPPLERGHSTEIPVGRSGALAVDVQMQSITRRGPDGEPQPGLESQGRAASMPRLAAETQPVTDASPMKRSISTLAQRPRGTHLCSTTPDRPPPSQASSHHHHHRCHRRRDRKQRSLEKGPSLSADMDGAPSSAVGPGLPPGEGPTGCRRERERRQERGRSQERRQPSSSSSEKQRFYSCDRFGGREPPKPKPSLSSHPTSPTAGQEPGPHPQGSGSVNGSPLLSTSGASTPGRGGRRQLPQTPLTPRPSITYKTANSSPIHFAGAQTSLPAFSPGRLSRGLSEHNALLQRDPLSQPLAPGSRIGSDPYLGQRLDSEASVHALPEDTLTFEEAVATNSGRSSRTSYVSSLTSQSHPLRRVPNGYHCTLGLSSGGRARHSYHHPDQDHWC
T6 sequence (Q02410 whole entry): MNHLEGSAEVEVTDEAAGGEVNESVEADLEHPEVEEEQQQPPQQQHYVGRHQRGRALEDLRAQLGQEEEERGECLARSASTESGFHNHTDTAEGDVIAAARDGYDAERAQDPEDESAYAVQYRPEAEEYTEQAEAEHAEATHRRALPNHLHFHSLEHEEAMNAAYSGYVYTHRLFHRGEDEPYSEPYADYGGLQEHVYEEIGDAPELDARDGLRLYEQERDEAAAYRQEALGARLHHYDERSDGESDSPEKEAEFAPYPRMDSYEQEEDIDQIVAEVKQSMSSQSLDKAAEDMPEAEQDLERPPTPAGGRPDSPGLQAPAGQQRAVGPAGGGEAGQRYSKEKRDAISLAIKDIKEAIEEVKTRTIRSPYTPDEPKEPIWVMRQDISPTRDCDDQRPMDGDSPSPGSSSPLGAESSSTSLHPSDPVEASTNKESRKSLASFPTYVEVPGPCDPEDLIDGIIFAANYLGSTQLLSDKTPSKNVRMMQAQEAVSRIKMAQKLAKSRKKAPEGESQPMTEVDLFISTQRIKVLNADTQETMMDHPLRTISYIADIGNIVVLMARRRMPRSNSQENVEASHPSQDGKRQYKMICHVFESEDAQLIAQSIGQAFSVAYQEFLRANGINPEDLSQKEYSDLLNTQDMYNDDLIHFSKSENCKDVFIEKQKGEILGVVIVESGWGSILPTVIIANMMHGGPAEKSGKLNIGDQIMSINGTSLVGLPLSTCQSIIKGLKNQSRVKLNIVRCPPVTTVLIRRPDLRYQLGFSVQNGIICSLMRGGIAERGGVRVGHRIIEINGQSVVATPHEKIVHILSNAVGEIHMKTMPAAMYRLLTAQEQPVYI
T9 sequence (Q9UBE0 whole entry): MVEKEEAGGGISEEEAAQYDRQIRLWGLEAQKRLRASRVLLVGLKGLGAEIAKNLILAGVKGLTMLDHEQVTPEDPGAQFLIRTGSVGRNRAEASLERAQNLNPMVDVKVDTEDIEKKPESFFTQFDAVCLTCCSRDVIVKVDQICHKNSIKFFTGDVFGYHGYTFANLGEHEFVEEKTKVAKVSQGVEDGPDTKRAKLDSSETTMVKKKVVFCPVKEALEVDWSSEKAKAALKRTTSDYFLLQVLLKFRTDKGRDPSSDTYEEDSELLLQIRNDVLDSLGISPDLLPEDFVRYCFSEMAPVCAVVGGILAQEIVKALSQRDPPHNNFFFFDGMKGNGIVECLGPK
T9 sequence (Q9UBT2 whole entry): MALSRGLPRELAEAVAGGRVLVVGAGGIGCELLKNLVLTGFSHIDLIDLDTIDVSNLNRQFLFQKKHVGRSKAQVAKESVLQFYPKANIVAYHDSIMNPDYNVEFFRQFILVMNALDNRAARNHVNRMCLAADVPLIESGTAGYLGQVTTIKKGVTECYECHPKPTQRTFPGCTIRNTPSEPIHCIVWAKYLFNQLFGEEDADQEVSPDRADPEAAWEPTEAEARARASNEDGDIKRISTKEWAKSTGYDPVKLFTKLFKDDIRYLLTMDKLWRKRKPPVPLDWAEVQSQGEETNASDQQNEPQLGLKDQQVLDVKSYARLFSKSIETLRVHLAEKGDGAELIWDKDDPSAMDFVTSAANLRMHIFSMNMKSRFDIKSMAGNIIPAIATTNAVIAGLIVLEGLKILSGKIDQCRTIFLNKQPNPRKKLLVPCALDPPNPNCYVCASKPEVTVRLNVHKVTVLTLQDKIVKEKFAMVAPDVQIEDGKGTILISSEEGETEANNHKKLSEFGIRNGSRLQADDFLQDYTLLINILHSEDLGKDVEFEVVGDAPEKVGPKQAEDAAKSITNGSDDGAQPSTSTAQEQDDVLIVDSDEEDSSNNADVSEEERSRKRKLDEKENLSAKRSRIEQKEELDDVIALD
Sequence of Trypsin (P00761 whole entry): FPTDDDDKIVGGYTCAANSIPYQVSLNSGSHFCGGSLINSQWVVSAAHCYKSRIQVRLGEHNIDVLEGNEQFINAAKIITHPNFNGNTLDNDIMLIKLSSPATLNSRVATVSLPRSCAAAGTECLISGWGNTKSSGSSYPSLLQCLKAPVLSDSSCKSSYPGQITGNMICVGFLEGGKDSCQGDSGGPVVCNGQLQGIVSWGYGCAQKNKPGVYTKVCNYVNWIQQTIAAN

Nc1cccc2cc(S(=O)(=O)O)ccc12
AC50 (ORF 73): 108 µM (active) | IC50 (Protein skinhead-1): > 100 µM (inactive)

O=C(c1ccccc1)c1cc([N+](=O)[O-])ccc1N1CCOCC1
IC50 [1]: > 80 µM (inactive)

CCC(=O)Oc1ccc2c(c1)O/C(=C\c1ccco1)C2=O
EC50 [2]: 31.5 µM (inactive) | EC50 [3]: > 99 µM (inactive) | AC50 (ORF 73): 14.1 µM (active)

COC(=O)c1ccc(Sc2nnnn2-c2ccccc2)c([N+](=O)[O-])c1
IC50 (cells): 14.3 µM (active) | CC50 [4]: 20.5 µM (active) | CC50 [5]: > 20 µM (active)

CC(=O)c1cnc(-c2ccccc2)s1
IC50 [6]: > 100 µM (inactive) | IC50 [7]: > 100 µM (not active)

CNC(=O)C1C(S)=NC(N)=C(C#N)C1c1ccccc1 (stereo not drawn)
EC50 [8]: 19 µM (active) | IC50 [9]: > 50 µM (inactive) | AC50 [10]: > 195 µM (inactive) | IC50 [11]: 1.68 µM (active)

CCC(=O)OC1c2ccccc2C(=O)N1Cc1ccccc1 (stereo not drawn)
IC50 [6]: > 100 µM (inactive) | IC50 [7]: > 100 µM (not active)

CC1CCCC(NC(=O)c2cn(C)c3ccc(S(=O)(=O)N4CCCC4)cc3c2=O)C1C (stereo not drawn)
IC50 [6]: > 100 µM (inactive) | IC50 [7]: > 100 µM (not active)

CCc1nc2c(cnn2-c2ccc(Cl)cc2)c(=O)n1-c1ccc(OC)cc1
EC50 [12]: 28.3 µM (active) | EC50 (Streptococcus): > 150 µM (not active) | Absolute IC50 (XBP1) (X-box-binding protein 1): 10 µM | EC50 (Streptokinase A): > 150 µM (not active)

COc1ccc(S(=O)(=O)NCC2CCCO2)cc1NC(=O)c1ccccc1F (stereo not drawn)
AC50 (Trypsin): 33 µM (active)

CCOC(=O)c1c(NC(=O)c2ccccc2Cl)sc2c1CCc1ccccc1-2
IC50 [13]: > 100 µM (inactive)

N=C1S/C(=C\c2ccco2)C(=O)N1c1ccc2c(c1)OCO2
IC50 [14]: 9.96 µM (active) | IC50 (SUMO-activating enzyme [15]): 13.4 µM (active) | IC50 (SUMO-activating enzyme [16]): 39.9 µM (active)

Cc1nc([N+](=O)[O-])c(Br)n1CC(=O)c1ccccc1
IC50 (cells): 10.8 µM (active) | CC50 [4]: 40 µM (active) | CC50 [5]: 18.6 µM (active)

C=CCOC(=O)/C=C/C(=O)NC(N)=O
IC50 [9]: 2.95 µM (active) | IC50 [11]: 7.61 µM (active)
